Among the data in patent US9120749B2, “Quinoline derivatives and MELK inhibitors containing the same” (ONCOTHERAPY SCIENCE, INC., priority 2010, dated 2015) are IC50 values, retold here.

Structures can show the parent of a compound that is named as a salt.

Assay [1] concerns the target MELK (Homo sapiens, UniProt Q14680). Briefly: Kinase assay: MELK activity, phosphorylation of FITC-labeled histone H3 peptide measured by IMAP fluorescence polarization. The class given is biochemical. Particulars: 50 micro-M ATP, FITC-labeled histone H3 peptide substrate, IMAP fluorescence polarization; read-out: IC50 (μM) (kinase assay). The procedure, abridged:
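Kinase reactions ran with or without test compound (final DMSO 1%) on a fluorescein-tagged H3 peptide. Progressive binding solution was added to terminate them. After a half-hour room-temperature incubation, polarization was measured.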

In assay [2] the test system is T47D cells. Description: Cell-based assay: anti-proliferative activity, Cell Counting Kit-8, 72 hours (T47D). As to conditions: Homo sapiens, T47D, 72 h, MELK-expressing, Cell Counting Kit-8 at 72 hours. The procedure, abridged:
(§1)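 First, lysates underwent western blotting with anti-MELK antibody to establish expression. Next, cells went into 96-well plates. Then candidate inhibitors were added. Finally, viability was determined by CCK-8 at 72 h and IC50 computed.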
On the technique in general: Tetrazolium assays rely on reduction of a dye to a coloured formazan, in cell work by metabolically active cells.

The test system of assay [3] is BT-549 cells. Description: Cell-based assay: anti-proliferative activity, Cell Counting Kit-8, 72 hours (BT-549). As to conditions: Homo sapiens, BT-549, 72 h, BT549 cells, MELK-expressing; Cell Counting Kit-8 at 72 hours. The procedure, abridged:
as §1

Assay [4] concerns HT-1197 cells. Description: Cell-based assay: anti-proliferative activity, Cell Counting Kit-8, 72 hours (HT-1197, negative control without MELK expression). As to conditions: Homo sapiens, HT1197, 72 h, HT1197 cells, no MELK expression (negative control); Cell Counting Kit-8 at 72 hours. The procedure, abridged:
as §1

In assay [5] the test system is A549 cells. Description: Cell-based assay: anti-proliferative activity, Cell Counting Kit-8, 72 hours (A549). Particulars: MELK-expressing, Cell Counting Kit-8 at 72 hours. The procedure, abridged: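 Cell Counting Kit-8 read-out of A549 growth after 72 hours of inhibitor exposure, cells plated in 96-well format. Values reported as IC50.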

Chain of MELK (Q14680 whole entry, looked up): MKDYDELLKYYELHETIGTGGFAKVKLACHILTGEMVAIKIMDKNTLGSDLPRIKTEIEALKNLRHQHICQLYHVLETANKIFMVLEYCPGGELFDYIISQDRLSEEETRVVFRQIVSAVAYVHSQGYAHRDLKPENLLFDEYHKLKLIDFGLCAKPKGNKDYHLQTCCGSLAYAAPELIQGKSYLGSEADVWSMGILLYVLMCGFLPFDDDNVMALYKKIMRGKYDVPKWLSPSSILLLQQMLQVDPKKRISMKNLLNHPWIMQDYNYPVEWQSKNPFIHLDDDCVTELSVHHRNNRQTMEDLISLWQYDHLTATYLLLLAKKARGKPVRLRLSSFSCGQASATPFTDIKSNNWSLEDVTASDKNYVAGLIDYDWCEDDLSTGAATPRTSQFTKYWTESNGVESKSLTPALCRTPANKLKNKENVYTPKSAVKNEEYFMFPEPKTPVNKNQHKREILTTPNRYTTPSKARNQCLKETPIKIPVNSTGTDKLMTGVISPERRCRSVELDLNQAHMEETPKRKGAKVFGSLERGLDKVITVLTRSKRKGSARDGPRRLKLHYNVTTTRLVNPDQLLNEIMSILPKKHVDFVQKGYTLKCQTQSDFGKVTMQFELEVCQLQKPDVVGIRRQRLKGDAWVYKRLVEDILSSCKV

In general, IC50 refers to the point on the concentration scale where inhibition reaches its midpoint. On to `O=C(c1cnc2ccc(-c3cc(F)c(O)c(Cl)c3)cc2c1N1CCC(CN2CCCC2)CC1)C1CC1` [Example 283, {6-(3-Chloro-5-fluoro-4-hydroxyphenyl)-4-[4-(pyrrolidin-1-ylmethyl)piperidin-1-yl]quinolin-3-yl}(cyclopropyl)methanone], for which the IC50 came out at 0.0029 µM in assay [1]; 0.35 µM in assay [2]; 0.72 µM in assay [3]; 3 µM in assay [4]; 0.54 µM in assay [5] (Homo sapiens, A549, 72 h).

Regarding `COc1cc(-c2ccc3ncc(C(=O)C4CC4)c(N4CCC(N5CCN(C)CC5)CC4)c3c2)cc(Cl)c1O` [Example 351, {6-(3-Chloro-4-hydroxy-5-methoxyphenyl)-4-[4-(4-methylpiperazin-1-yl)piperidin-1-yl]quinolin-3-yl}(cyclopropyl)methanone], the IC50 in assay [1] turned out to be 0.0022 µM; in assay [2], 0.34 µM; in assay [3], 0.67 µM; in assay [4], 3 µM; in assay [5] (Homo sapiens, A549, 72 h), 0.33 µM.

For `CCN(CC)C1CCC(Nc2c(C(=O)C3CC3)cnc3ccc(-c4cc(Cl)c(O)c(OC)c4)cc23)CC1` (stereo not drawn) [Example 185(a), {6-(3-Chloro-4-hydroxy-5-methoxyphenyl)-4-[4-(diethylamino)cyclohexylamino]quinolin-3-yl}(cyclopropyl)methanone], the IC50 was determined as 0.0026 µM in assay [1]; 0.59 µM in assay [2]; 2 µM in assay [3]; 6.9 µM in assay [4]; 0.42 µM in assay [5].

As for `COc1cc(-c2ccc3ncc(C(=O)CC(C)C)c(N[C@H]4CC[C@H](N)CC4)c3c2)cc(Cl)c1O` [Example 262, dihydrochloride], the IC50 is 0.005 µM in assay [1]; 0.13 µM in assay [2]; 0.91 µM in assay [3]; 2.2 µM in assay [4]; 0.36 µM in assay [5] (Homo sapiens, A549, 72 h).

Regarding `N[C@H]1CC[C@H](Nc2c(C(=O)C3CC3)cnc3ccc(-c4cc(F)c(O)c(F)c4)cc23)CC1` [Example 156, {4-[trans-4-Aminocyclohexylamino]-6-(3,5-difluoro-4-hydroxyphenyl)quinolin-3-yl}(cyclopropyl)methanone], the IC50 in assay [1] was found to be 0.023 µM; in assay [2] it was 0.095 µM; in assay [3], 0.16 µM; in assay [4], 3.1 µM; in assay [5] (Homo sapiens, A549, 72 h), 0.88 µM.

For the molecule `COc1cc(-c2ccc3ncc(C(=O)C4CC4)c(NC4CCN(C)CC4)c3c2)ccc1O` [Example 177, Cyclopropyl[6-(4-hydroxy-3-methoxyphenyl)-4-(1-methylpiperidin-4-ylamino)quinolin-3-yl]methanone], the IC50 in assay [1] was 0.026 µM; in assay [2], 0.88 µM; in assay [3], 2.6 µM; in assay [4] it was 2.3 µM; in assay [5] (Homo sapiens, A549, 72 h) it was 0.83 µM.

As to `COc1cc(-c2ccc3ncc(C(=O)C4CC4)c(NCC4CCNCC4)c3c2)cc(Cl)c1O` [Example 243], the IC50 in assay [1] worked out at 0.0044 µM; in assay [2], 0.33 µM; in assay [3], 1.8 µM; in assay [4], 7.3 µM; in assay [5] (Homo sapiens, A549, 72 h) it was 0.62 µM.

Regarding `CC(C)C(=O)c1cnc2ccc(-c3cc(F)c(O)c(Cl)c3)cc2c1N1CCC(CN2CCCC2)CC1` [Example 323, 1-{6-(3-Chloro-5-fluoro-4-hydroxyphenyl)-4-[4-(pyrrolidin-1-ylmethyl)piperidin-1-yl]quinolin-3-yl}-2-methylpropan-1-one], the IC50 in assay [1] is 0.013 µM; in assay [2], 0.63 µM; in assay [3], 1.5 µM; in assay [4], 1.2 µM; in assay [5] (Homo sapiens, A549, 72 h), 0.87 µM.

Regarding `CC(C)C(=O)c1cnc2ccc(-c3ccc(C#N)nc3)cc2c1N[C@H]1CC[C@H](N)CC1` [Example 108, 5-{4-[trans-4-Aminocyclohexylamino]-3-isobutyrylquinolin-6-yl}picolinonitrile], the IC50 in assay [1] amounted to 0.03 µM; in assay [2], 6.1 µM; in assay [3] it was 14 µM; in assay [4], 15 µM; in assay [5] (Homo sapiens, A549, 72 h), 13 µM.
